Measurements as given in publication PMC6592262, “Isolation and functional characterization of two dioxygenases putatively involved in bixin biosynthesis in annatto (Bixa orellana L.)” (PeerJ, 2019).

Target: T1, BoCCD4-3 (Bixa orellana, UniProt A0A140CWS5)
T1 construct: gene CCD4-3; complete ORF (1,785 bp amplicon, predicted 30-residue transit peptide kept) in pDEST17, arabinose-induced in lycopene-accumulating E. coli BL21 (pACCRTEIB); cells or crude cell-free extract, not purified
Assay: cleavage in lycopene-accumulating E. coli and in cell-free extract; HPLC, UHPLC-ESI-QTOF-MS/MS, FTIR
Format: biochemical
Settings: 1 mM lycopene added 1:1 to extract, 22 °C, up to 5 min; product bixin aldehyde (m/z 349.2), 5,6/5',6' cleavage; crude extract

T1 sequence (A0A140CWS5 entry or part of it): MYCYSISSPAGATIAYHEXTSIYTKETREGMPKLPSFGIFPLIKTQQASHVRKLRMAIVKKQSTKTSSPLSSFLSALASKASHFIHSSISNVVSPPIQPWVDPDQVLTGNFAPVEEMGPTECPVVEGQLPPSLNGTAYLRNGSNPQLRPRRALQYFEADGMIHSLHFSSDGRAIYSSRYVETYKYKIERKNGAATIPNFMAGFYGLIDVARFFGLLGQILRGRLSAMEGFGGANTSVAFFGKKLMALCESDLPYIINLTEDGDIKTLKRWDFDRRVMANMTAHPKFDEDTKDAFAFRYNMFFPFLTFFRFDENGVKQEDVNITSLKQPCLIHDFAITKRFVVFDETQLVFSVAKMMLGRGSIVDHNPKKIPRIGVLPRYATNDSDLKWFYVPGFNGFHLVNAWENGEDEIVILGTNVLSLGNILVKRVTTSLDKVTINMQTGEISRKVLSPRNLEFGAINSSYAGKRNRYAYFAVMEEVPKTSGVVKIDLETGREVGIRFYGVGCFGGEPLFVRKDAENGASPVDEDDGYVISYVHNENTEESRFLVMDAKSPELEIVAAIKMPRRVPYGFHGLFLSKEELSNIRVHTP

`CC(C)=CCC/C(C)=C/C=C/C(C)=C/C=C/C(C)=C/C=C/C=C(C)/C=C/C=C(C)/C=C/C=C(\C)CCC=C(C)C` [lycopene] was tested, and the “cleavage in lycopene-accumulating E. coli and in cell-free extract; HPLC, UHPLC-” value was “BoCCD4-3 is also able to cleave lycopene into bixin aldehyde, but at lower efficiency”.
